Test results reported in patent US20130171139A1, “NCAM-VASE AND NEURODEGENERATION” (priority 2010, published 2013).

Experiments:
Type in all cases: cell-based
[1] = tested on: PND4 rat cerebellar granule neurons; assay: Neurite/axon outgrowth of cerebellar granule neurons cultured on 3T3 monolayers (control, NCAM or NCAM-VASE); conditions: FGF (0.1 ng/m) or forskolin added to culture medium
Experimental: It has previously been shown that soluble NCAM-Fc stimulates axon outgrowth over control monolayers as effectively as if it were expressed in the monolayer (Meiri et al, J. Neurosci, 1998, 18, 10429-10437). […]
[…] Cerebellar granule neurons were cultured on control, NCAM-expressing (NCAM) or NCAM-VASE-expressing (VASE) monolayers in the absence of presence of soluble NCAM-Fc or NCAM-VASE-Fc (VASE-Fc).

[2] = tested on: total NCAM; assay: Total NCAM staining of cultured cortical astrocytes; conditions: PND4 rat cortical astrocytes; 2 days; 1 mM dbcAMP or 50 ng/ml FGF-2
Experimental: (§1) Expression of NCAM-VASE by astrocytes was also examined. Astrocytes (>90% GFAP-positive cells) were isolated from the cortices of PND4 rat and cultured for 2 days in the absence or presence of 1 mM dbcAMP or 50 ng/ml FGF-2 in DMEM/10% FBS. Treatment with dbcAMP or FGF is known to stimulate a reactive phenotype in astrocytes, such as is found in astrocytes in the glial scars that are characteristic of damaged CNS. The astrocytes were then fixed and costained for GFAP and NCAM-VASE (as shown in FIG. 4) or total NCAM (not shown).

[3] = tested on: NCAM-VASE; assay: NCAM-VASE staining of cultured cortical astrocytes; conditions: PND4 rat cortical astrocytes; 2 days; 1 mM dbcAMP or 50 ng/ml FGF-2
Experimental: as §1

| Molecule | axon length ([1]; NCAM-VASE-expressing monolayers) | axon outgrowth ([1]; control monolayers) | total NCAM staining [2] | NCAM-VASE staining [3] |
| --- | --- | --- | --- | --- |
| FGF2: fibroblast growth factor, known to stimulate axon outgrowth from cerebellar granule neurons | do not extend longer axons | stimulate axon outgrowth | large upregulation | large upregulation |
| CCCC(=O)Nc1ncnc2c1ncn2[C@@H]1O[C@@H]2COP(=O)(O)O[C@H]2[C@H]1OC(=O)CCC [dBcAMP, dbcAMP, reference compound] | – | – | large upregulation | large upregulation |
